According to BindingDB's records for patent US20240033370 (Bolt Biotherapeutics, 2024):
pEC50: −log10 of the molar value.

Molecular target: T1, Toll-like receptor 7 (Homo sapiens, UniProt Q9NYK1)
T1 sequence (Q9NYK1 whole entry): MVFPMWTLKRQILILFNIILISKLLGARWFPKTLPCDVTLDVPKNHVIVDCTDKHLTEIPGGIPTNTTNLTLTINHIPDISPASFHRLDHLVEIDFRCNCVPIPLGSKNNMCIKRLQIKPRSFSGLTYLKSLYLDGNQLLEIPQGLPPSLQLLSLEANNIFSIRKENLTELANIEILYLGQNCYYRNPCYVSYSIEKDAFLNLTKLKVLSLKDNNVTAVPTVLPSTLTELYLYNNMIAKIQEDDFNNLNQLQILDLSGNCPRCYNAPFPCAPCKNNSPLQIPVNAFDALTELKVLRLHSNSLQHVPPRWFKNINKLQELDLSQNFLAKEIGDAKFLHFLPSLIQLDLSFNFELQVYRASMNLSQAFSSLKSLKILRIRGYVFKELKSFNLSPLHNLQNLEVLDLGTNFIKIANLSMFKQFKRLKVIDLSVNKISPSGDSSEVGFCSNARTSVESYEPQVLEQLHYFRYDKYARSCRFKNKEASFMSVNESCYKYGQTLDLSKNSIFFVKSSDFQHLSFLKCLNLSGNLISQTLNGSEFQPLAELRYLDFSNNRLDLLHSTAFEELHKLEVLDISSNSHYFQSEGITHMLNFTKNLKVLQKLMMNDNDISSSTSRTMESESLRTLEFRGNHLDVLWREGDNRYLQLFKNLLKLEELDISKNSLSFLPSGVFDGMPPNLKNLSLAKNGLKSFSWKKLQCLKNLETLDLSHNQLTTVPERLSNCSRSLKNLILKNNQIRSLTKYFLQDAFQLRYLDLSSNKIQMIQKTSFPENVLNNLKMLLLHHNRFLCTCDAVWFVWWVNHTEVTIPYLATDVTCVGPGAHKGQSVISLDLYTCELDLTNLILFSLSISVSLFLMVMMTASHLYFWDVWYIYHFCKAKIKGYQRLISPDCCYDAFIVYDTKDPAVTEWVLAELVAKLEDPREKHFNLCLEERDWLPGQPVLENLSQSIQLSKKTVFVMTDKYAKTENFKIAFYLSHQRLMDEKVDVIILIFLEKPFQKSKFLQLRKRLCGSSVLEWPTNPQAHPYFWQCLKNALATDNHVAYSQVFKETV
Experiment: HEK Reporter Assay
Description: HEK293 reporter cells expressing human TLR7 or human TLR8 were purchased from Invivogen and vendor protocols were followed for cellular propagation and experimentation. Briefly, cells were grown to 80-85% confluence at 5% CO2 in DMEM supplemented with 10% FBS, Zeocin, and Blasticidin. Cells were then seeded in 96-well flat plates at 4×10^4 cells/well with substrate containing HEK detection medium and immunostimulatory molecules. Activity was measured using a plate reader at 620-655 nm wavelength.

CCCNC(=O)C1=Cc2ccc(-c3cnc(CN)nc3)cc2N=C(N)C1 [US20240033370, Hx No. CycBz-5] was tested, and the pEC50 was 7.46.
